# Laboratory results as given in patent US6211244A, “Calcium receptor-active compounds” (priority 1995, dated 2001).
# Target: T1, human calcium receptor (Homo sapiens, UniProt P41180, R990G)
# T1 construct: expressed in transfected cells; host or cells: HEK 293
# T1 sequence (P41180 20-1078 R990G): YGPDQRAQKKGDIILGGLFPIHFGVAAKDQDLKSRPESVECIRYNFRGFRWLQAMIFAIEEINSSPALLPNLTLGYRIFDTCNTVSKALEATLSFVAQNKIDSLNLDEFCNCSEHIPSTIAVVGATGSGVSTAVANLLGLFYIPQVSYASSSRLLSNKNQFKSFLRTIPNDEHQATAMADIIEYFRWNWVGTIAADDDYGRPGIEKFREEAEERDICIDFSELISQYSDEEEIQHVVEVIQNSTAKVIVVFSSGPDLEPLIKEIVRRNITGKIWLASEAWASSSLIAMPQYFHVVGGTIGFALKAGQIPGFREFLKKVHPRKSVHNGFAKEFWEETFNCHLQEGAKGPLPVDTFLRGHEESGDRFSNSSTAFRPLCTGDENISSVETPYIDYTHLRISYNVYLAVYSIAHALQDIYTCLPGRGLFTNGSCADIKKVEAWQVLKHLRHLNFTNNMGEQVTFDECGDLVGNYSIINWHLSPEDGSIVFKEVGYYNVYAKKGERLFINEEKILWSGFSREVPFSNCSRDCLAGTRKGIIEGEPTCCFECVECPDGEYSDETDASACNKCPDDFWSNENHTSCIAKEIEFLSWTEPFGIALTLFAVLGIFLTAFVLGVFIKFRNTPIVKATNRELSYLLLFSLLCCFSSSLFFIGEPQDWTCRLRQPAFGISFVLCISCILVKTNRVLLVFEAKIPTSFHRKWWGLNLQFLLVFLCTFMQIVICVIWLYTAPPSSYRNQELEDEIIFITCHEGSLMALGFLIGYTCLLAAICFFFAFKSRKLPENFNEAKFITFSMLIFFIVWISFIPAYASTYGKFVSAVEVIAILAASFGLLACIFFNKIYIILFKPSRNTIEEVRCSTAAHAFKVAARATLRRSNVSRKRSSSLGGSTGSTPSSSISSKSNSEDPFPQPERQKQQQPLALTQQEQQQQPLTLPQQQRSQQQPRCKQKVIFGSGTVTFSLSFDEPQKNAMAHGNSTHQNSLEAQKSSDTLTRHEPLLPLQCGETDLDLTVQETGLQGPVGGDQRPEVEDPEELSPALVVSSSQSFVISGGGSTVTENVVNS
# Experiment: increases in [Ca^2+ ]i in HEK-293 cells expressing the human calcium receptor (fura-2 loaded HEK 293/pHuPCaR4.0 cells), % activity
# Assay type: cell-based
# Conditions: for activity at […]: HEK293
Structure (SMILES),% activity (33 ng/mL),% activity (330 ng/mL),% activity (3300 ng/mL),activity at […] (33 ng/mL),activity at […] (330 ng/mL)
COc1ccc(CNC(C)c2ccccc2)cc1C (centres unmarked) [Compound 23G],67%,93%,127%,,
COc1ccc(CNC(C)c2ccccc2OC)cc1C (centres unmarked) [Compound 23H],,,,77%,114%
COc1cccc(C(C)NCc2ccc(OC)c(C)c2)c1 (centres unmarked) [Compound 23I],58%,102%,,,
COc1ccc(CNC(C)c2ccccc2F)cc1C (centres unmarked) [Compound 23J],51%,61%,102%,,
COc1ccc(CNC(C)c2cccc(F)c2)cc1C (centres unmarked) [Compound 23K],72%,107%,106%,,
COc1ccc(CNC(C)c2ccc(F)cc2)cc1C (centres unmarked) [Compound 23L],37%,77%,107%,,
COc1ccc(CNC(C)c2ccccc2Cl)cc1C (centres unmarked) [Compound 23M],74%,97%,113%,,
COc1ccc(CNC(C)c2cccc(Cl)c2)cc1C (centres unmarked) [Compound 23N],50%,96%,,,
COc1ccc(CNC(C)c2ccc(Cl)cc2)cc1C (centres unmarked) [Compound 23O],46%,79%,111%,,
COc1ccc(CNC(C)c2ccccc2Br)cc1C (centres unmarked) [Compound 23P],70%,99%,125%,,
COc1ccc(CNC(C)c2cccc(Br)c2)cc1C (centres unmarked) [Compound 23Q],98%,114%,122%,,
COc1ccc(CNC(C)c2ccc(Br)cc2)cc1C (centres unmarked) [Compound 23R],54%,86%,104%,,
COc1ccc(CNC(C)c2cccc(I)c2)cc1C (centres unmarked) [Compound 23S],53%,97%,,,
COc1ccc(CNC(C)c2ccc(I)cc2)cc1C (centres unmarked) [Compound 23T],60%,74%,102%,,
COc1ccc(CNC(C)c2cccc(C(C)=O)c2)cc1C (centres unmarked) [Compound 23U],48%,87%,,,
COc1ccc(CNC(C)c2ccccc2C)cc1C (centres unmarked) [Compound 23W],81%,97%,117%,,
COc1ccc(CNC(C)c2cccc(C)c2)cc1C (centres unmarked) [Compound 23X],49%,94%,,,
COc1ccc(CNC(C)c2cccc(C)c2)cc1C (centres unmarked) [Compound 23Y],61%,87%,106%,,
CCc1cccc(C(C)NCc2ccc(OC)c(C)c2)c1 (centres unmarked) [Compound 23Z],100%,126%,129%,,
CCc1ccc(C(C)NCc2ccc(OC)c(C)c2)cc1 (centres unmarked) [Compound 24A],52%,85%,122%,,
COc1ccc(CNC(C)c2ccccc2C(F)(F)F)cc1C (centres unmarked) [Compound 24B],34%,61%,76%,,
COc1ccc(CNC(C)c2cccc(C(F)(F)F)c2)cc1C (centres unmarked) [Compound 24C],87%,113%,116%,,
COc1ccc(CNC(C)c2ccc(C(F)(F)F)cc2)cc1C (centres unmarked) [Compound 24D],34%,53%,87%,,
COc1ccc(CNC(C)c2cccc(C#N)c2)cc1C (centres unmarked) [Compound 24E],35%,71%,94%,,
COc1ccc(CNC(C)c2ccc(C)c(C)c2)cc1C (centres unmarked) [Compound 24G],75%,94%,109%,,
COc1ccc(CNC(C)c2ccc(F)c(F)c2)cc1C (centres unmarked) [Compound 24I],55%,84%,109%,,

Structure (SMILES),% activity (33 ng/mL),% activity (330 ng/mL),% activity (3300 ng/mL),activity at […] (33 ng/mL),activity at […] (330 ng/mL)
C[C@@H](NCCCc1cccc(OC(F)(F)F)c1)c1cccc2ccccc12 [Compound 24J],75%,103%,,,
COc1cccc([C@@H](C)NCCCc2cc(F)ccc2F)c1 [Compound 24K],78%,106%,,,
COc1cccc([C@@H](C)NCCCc2c(F)cccc2F)c1 [Compound 24L],62%,105%,,,
COc1cccc([C@@H](C)NCCCc2cc(F)cc(F)c2)c1 [Compound 24M],99%,134%,132%,,
CC(NCCCc1ccccc1Cl)c1cccc(Cl)c1 (centres unmarked) [Compound 24O],58%,114%,137%,,
COc1cccc([C@@H](C)NC(C)CCc2cc(F)cc(F)c2)c1 (some centres unmarked) [Compound 24P],110%,138%,140%,,
COC(=O)c1cccc(C(C)NCc2ccc(OC)c(C)c2)c1 (centres unmarked) [Compound 24U],78%,106%,106%,,
CCOC(=O)COc1cccc(C(C)NCc2ccc(OC)c(C)c2)c1 (centres unmarked) [Compound 24V],71%,98%,127%,,
COc1ccc(CN[C@H](C)c2cccc3ccccc23)cc1Br [Compound 24X],124%,109%,126%,,
CCOc1ccc(CN[C@H](C)c2cccc3ccccc23)cc1Cl [Compound 24Y],127%,120%,119%,,
COc1ccc(CNC(C)c2cccc(SC)c2)cc1C (centres unmarked) [Compound 24Z],135%,138%,138%,,
CCOc1ccc(CN[C@H](C)c2cccc3ccccc23)cc1C [Compound 25A],114%,120%,122%,,
"COc1cccc([C@@H](C)NCC=Cc2ccccc2)c1 [Compound 25E, (R)-N-(3-phenylprop-2-enyl)-1-(3-methoxyphenyl)ethylamine]",122%,129%,132%,,
COc1cccc([C@@H](C)NCc2cccc3ccccc23)c1 [Compound 25F],,,,76%,85%
"COc1cccc([C@@H](C)NCC(C)=Cc2ccccc2)c1 [Compound 25G, (R)-N-(2-methyl-3-phenylprop-2-enyl)-1-(3-methoxyphenyl)ethylamine]",99%,115%,130%,,
"COc1cccc([C@@H](C)NC[C@H](C)C=Cc2ccccc2)c1 [Compound 25H, (R,R)-N-(2-methyl-4-phenybut-3-enyl)-1-(3-methoxyphenyl)ethylamine]",89%,107%,115%,,
"COc1cccc([C@H](C)NC[C@H](C)C=Cc2ccccc2)c1 [Compound 25I, (S,R)-N-(2-methyl-4-phenybut-3-enyl)-1-(3-methoxyphenyl)ethylamine]",114%,113%,119%,,
COc1cccc([C@@H](C)NCc2ccc3c(c2)OCO3)c1 [Compound 25J],105%,123%,119%,,
COc1cccc([C@@H](C)NCc2ccc(OC)c(OC)c2)c1 [Compound 25K],86%,107%,124%,,
C[C@@H](NCc1cccc2ccccc12)c1cccc2ccccc12 [Compound 25L],85%,97%,97%,,
COc1cccc([C@@H](C)NCC(C)c2ccccc2)c1 (some centres unmarked) [Compound 25M],79%,100%,118%,,
COc1cccc([C@@H](C)NCC(C)c2ccccc2)c1 (some centres unmarked) [Compound 25N],46%,73%,94%,,
COc1cccc([C@@H](C)NCc2ccc3c(c2)OCCO3)c1 [Compound 25O],96%,115%,126%,,
COc1cccc([C@@H](C)NC2Cc3ccccc3C2)c1 [Compound 25P],75%,81%,90%,,
COc1cccc([C@@H](C)NCCc2ccccc2)c1 [Compound 25Q],77%,95%,116%,,
